Laboratory results published in article PMC4604124, “In Vitro Characterization of the Pharmacological Properties of the Anti-Cancer Chelator, Bp4eT, and Its Phase I Metabolites” (PLoS ONE, 2015).
Several values for one entry are separate records, joined by “and”; a condition that tells them apart may be missing. Identical values can stand only once.

How the values were obtained:
[1] = system: HCT116 human colorectal carcinoma cells; experiment: MTT cytotoxicity assay, HCT116 cells; assay type: cell-based; settings: for IC50: MTT
Experimental: (§1) For cytotoxicity experiments, cancer cells were seeded at a density of 5,000 (MCF-7), 10,000 (HL-60) or 2,000 cells/well (HCT116 and A549) in 96-well plates (TPP) for 24 h/37°C prior to the addition of examined agents. The non-cancerous cells, 3T3 and H9c2 cells, were cultured for 24 h/37°C in 96-well plates at a density of 10,000 cells/well, the medium was then changed to serum- and pyruvate-free DMEM (Sigma-Aldrich) and incubated with the cells for another 24 h/37°C. The cytotoxic effects of Bp4eT and its metabolites were studied at different concentrations after a 72 h/37°C incubation. In order to aid the dissolution of the lipophilic ligands, 0.1% dimethyl sulfoxide (v/v) (DMSO; Sigma-Aldrich) was present in the culture medium of all groups. At this concentration, DMSO had no effect on cellular proliferation or viability.
(§2) The viability of cells were determined using an MTT assay (Sigma-Aldrich) according to previously established methods. The optical density of soluble MTT was measured at λ = 570 nm, subtracting the λ = 690 nm background using a Tecan Infinite 200M plate reader (Tecan Group, Männedorf, Switzerland). The viability or proliferation of experimental groups was expressed as a percentage of the untreated controls (100%).
(§3) SigmaStat for Windows 3.5 (Systat Software, San Jose, CA, USA) statistical software package was utilized to analyze results. The data are expressed as the mean ± SD of a given number of experiments. Statistical significance was determined using a one-way ANOVA with a Bonferroni post-hoc test or Student’s t-test. The results were considered to be statistically significant when p < 0.05. The IC50 values were calculated using CalcuSyn 2.0 software (Biosoft, Cambridge, UK). Cell cycle analysis was evaluated using MultiCycle AV Software (Phoenix Flow Systems, San Diego, CA, USA).

caspase 8 = experiment: Caspase activity, luminescent kit, caspase 8; assay type: cell-based, human; settings: for kaspáza 8, raw signal / kaspáza 8, signal / viabilita: individual experiments by date; for kaspáza 8, raw signal, průměry / kaspáza 8, % kontroly / kaspáza 8, signal / viabilita, průměry: mean; for kaspáza 8, % kontroly / kaspáza 8, signal / viabilita / kaspáza 8, signal / viabilita, průměry: normalised to viability
Experimental: (§4) To assess the effect of the compounds on caspase activity, MCF-7 cells were incubated with 100 nM Bp4eT or its metabolites for 3, 24 or 72 h/37°C in 96-well plates, as described above. The cells were then lysed by adding 100 μL of cold lysis buffer (100 mM HEPES, 10 mM CHAPS, 10 mM D-L-dithiothreitol, pH 7.4) to 100 μL of medium in each well. Lysates were immediately frozen at -80°C. Thawed lysates were used to assess caspase activity using luminescent kits for caspases 3/7, 8 and 9 (Promega, Madison, WI, USA). The luminescence was measured using the Tecan Infinite 200M plate reader. Caspase activity in the experimental groups was corrected according to the cellular viability of each group and expressed as a percentage of activity of the untreated control (100%).

caspase 9 = experiment: Caspase activity, luminescent kit, caspase 9; assay type: cell-based, human; settings: for kaspáza 9, raw signal / kaspáza 9, signal / viabilita: individual experiments by date; for kaspáza 9, raw signal, průměry / kaspáza 9, % kontroly / kaspáza 9, signal / viabilita, průměry: mean; for kaspáza 9, % kontroly / kaspáza 9, signal / viabilita / kaspáza 9, signal / viabilita, průměry: normalised to viability
Experimental: as §4

[2] = system: 3T3 mouse embryo fibroblasts; experiment: MTT cytotoxicity assay, 3T3 cells; assay type: cell-based; settings: for MTT, relative to control (0 = 100): 3T3, 10 000 b/j
Experimental: as §1, §2, §3

CCNC(=O)NN=C(c1ccccc1)c1ccccn1 [Z-Bp4eS, 2-benzoylpyridine 4-ethylsemicarbazone]
Therapeutic index, IC50 non-cancerous cells / IC50 neoplastic cells ([1]; 3T3/HCT116): >3.0 | Therapeutic index, IC50 non-cancerous cells / IC50 neoplastic cells ([1]; H9c2/HCT116): 1.0 | IC50 ([1]; HCT116, 72 h/37°C, mean ± SD, n ≥ 4): 337 ± 48.5 µM | MTT, relative to control (0 = 100) ([1]; HCT116, 2 000 b/j, 1 μM, průměr (mean), sheet Z-Bp4eS): 98.02 | MTT, relative to control (0 = 100) ([1]; HCT116, 2 000 b/j, 1 μM, single experiment (date), sheet Z-Bp4eS): 92.9248 and 94.2078 and 101.373 and 103.589 | MTT, relative to control (0 = 100) ([1]; HCT116, 2 000 b/j, 3 μM, průměr (mean), sheet Z-Bp4eS): 95.04 | MTT, relative to control (0 = 100) ([1]; HCT116, 2 000 b/j, 3 μM, single experiment (date), sheet Z-Bp4eS): 90.3505 and 96.7506 and 97.8429 and 95.2259 | MTT, relative to control (0 = 100) ([1]; HCT116, 2 000 b/j, 10 μM, průměr (mean), sheet Z-Bp4eS): 92.27 | MTT, relative to control (0 = 100) ([1]; HCT116, 2 000 b/j, 10 μM, single experiment (date), sheet Z-Bp4eS): 90.1105 and 89.2672 and 98.2602 and 91.4504 | MTT, relative to control (0 = 100) ([1]; HCT116, 2 000 b/j, 30 μM, průměr (mean), sheet Z-Bp4eS): 89.97 | MTT, relative to control (0 = 100) ([1]; HCT116, 2 000 b/j, 30 μM, single experiment (date), sheet Z-Bp4eS): 84.3315 and 84.8984 and 97.3042 and 93.3561 | MTT, relative to control (0 = 100) ([1]; HCT116, 2 000 b/j, 100 μM, průměr (mean), sheet Z-Bp4eS): 81.81 | MTT, relative to control (0 = 100) ([1]; HCT116, 2 000 b/j, 100 μM, single experiment (date), sheet Z-Bp4eS): 79.36 and 76.1483 and 84.5307 and 87.1986 | MTT, relative to control (0 = 100) ([1]; HCT116, 2 000 b/j, 300 μM, průměr (mean), sheet Z-Bp4eS): 62.81 | MTT, relative to control (0 = 100) ([1]; HCT116, 2 000 b/j, 300 μM, single experiment (date), sheet Z-Bp4eS): 53.0737 and 67.0105 and 63.0816 and 68.093 | MTT, relative to control (0 = 100) ([1]; HCT116, 2 000 b/j, 1000 μM, průměr (mean), sheet Z-Bp4eS): 14.99 | MTT, relative to control (0 = 100) ([1]; HCT116, 2 000 b/j, 1000 μM, single experiment (date), sheet Z-Bp4eS): 11.223 and 18.8694 and 13.6196 and 16.2655 | IC50 ([1]; HCT116, 2 000 b/j, single experiment (date), sheet Z-Bp4eS): 350 µM and 338 µM and 388 µM | IC50 ([1]; Homo sapiens, HCT-116, HCT116, 2 000 b/j, průměr (mean), sheet Z-Bp4eS): 337 µM | IC50 ([1]; Homo sapiens, HCT-116, HCT116, 2 000 b/j, single experiment (date), sheet Z-Bp4eS): 272 µM | kaspáza 8, raw signal (caspase 8; 3 hodiny): 1943.5 and 1086.5 and 1152 and 914.5 | kaspáza 8, raw signal, průměry (caspase 8; 3 hodiny): 1274.12 | kaspáza 8, % kontroly (caspase 8; 3 hodiny): 95.08 % kontroly | kaspáza 8, signal / viabilita (caspase 8; 3 hodiny): 19.9524 and 11.1542 and 11.8267 and 9.388 | kaspáza 8, signal / viabilita, průměry (caspase 8; 3 hodiny): 13.0804 | kaspáza 8, raw signal (caspase 8; 24 hodin): 1728 and 1248 and 1958.5 and 1430.5 | kaspáza 8, raw signal, průměry (caspase 8; 24 hodin): 1591.25 | kaspáza 8, % kontroly (caspase 8; 24 hodin): 100.61 % kontroly | kaspáza 8, signal / viabilita (caspase 8; 24 hodin): 17.3743 and 12.5481 and 19.6919 and 14.3831 | kaspáza 8, signal / viabilita, průměry (caspase 8; 24 hodin): 15.9994 | kaspáza 8, raw signal (caspase 8; 72 hodin): 6689.5 and 5535.5 and 6778.5 and 5867 | kaspáza 8, raw signal, průměry (caspase 8; 72 hodin): 6217.62 | kaspáza 8, % kontroly (caspase 8; 72 hodin): 96.15 % kontroly | kaspáza 8, signal / viabilita (caspase 8; 72 hodin): 71.5149 and 59.1779 and 72.4663 and 62.7218 | kaspáza 8, signal / viabilita, průměry (caspase 8; 72 hodin): 66.4702 | kaspáza 9, raw signal (caspase 9; 3 hodiny): 6118 and 2344.5 and 3460 and 2039.5 | kaspáza 9, raw signal, průměry (caspase 9; 3 hodiny): 3490.5 | kaspáza 9, % kontroly (caspase 9; 3 hodiny): 100.62 % kontroly | kaspáza 9, signal / viabilita (caspase 9; 3 hodiny): 62.8087 and 24.0691 and 35.5211 and 20.938 | kaspáza 9, signal / viabilita, průměry (caspase 9; 3 hodiny): 35.8342 | kaspáza 9, raw signal (caspase 9; 24 hodin): 4532 and 2581 and 5427.5 and 4043 | kaspáza 9, raw signal, průměry (caspase 9; 24 hodin): 4145.88 | kaspáza 9, % kontroly (caspase 9; 24 hodin): 101.82 % kontroly | kaspáza 9, signal / viabilita (caspase 9; 24 hodin): 45.5674 and 25.9509 and 54.5713 and 40.6507 | kaspáza 9, signal / viabilita, průměry (caspase 9; 24 hodin): 41.6851 | kaspáza 9, raw signal (caspase 9; 72 hodin): 21491.5 and 17542 and 23160 and 18381 | kaspáza 9, raw signal, průměry (caspase 9; 72 hodin): 20143.6 | kaspáza 9, % kontroly (caspase 9; 72 hodin): 100.13 % kontroly | kaspáza 9, signal / viabilita (caspase 9; 72 hodin): 229.757 and 187.535 and 247.595 and 196.504 | kaspáza 9, signal / viabilita, průměry (caspase 9; 72 hodin): 215.348 | IC50 ([2]; 3T3, 72 h/37°C, MTT, mean ± SD, n ≥ 4, read-out: IC50): > 1000 µM | MTT, relative to control (0 = 100) ([2]; 1 μM, průměr (mean)): 99.81 | MTT, relative to control (0 = 100) ([2]; 1 μM, single experiment (date)): 90.4217 and 112.179 and 103.613 and 93.692 and 99.1404 | MTT, relative to control (0 = 100) ([2]; 3 μM, průměr (mean)): 93.98 | MTT, relative to control (0 = 100) ([2]; 3 μM, single experiment (date)): 89.9896 and 95.9618 and 102.444 and 92.291 and 89.1987 | MTT, relative to control (0 = 100) ([2]; 10 μM, průměr (mean)): 93.85 | MTT, relative to control (0 = 100) ([2]; 10 μM, single experiment (date)): 91.4468 and 99.0627 and 95.1304 and 94.2734 and 89.336 | MTT, relative to control (0 = 100) ([2]; 30 μM, průměr (mean)): 90.21 | MTT, relative to control (0 = 100) ([2]; 30 μM, single experiment (date)): 100.856 and 90.0957 and 87.8236 and 82.0687 | MTT, relative to control (0 = 100) ([2]; 100 μM, průměr (mean)): 73.57 | MTT, relative to control (0 = 100) ([2]; 100 μM, single experiment (date)): 81.8752 and 74.6133 and 74.3643 and 63.4281 | MTT, relative to control (0 = 100) ([2]; 300 μM, průměr (mean)): 72.55 | MTT, relative to control (0 = 100) ([2]; 300 μM, single experiment (date)): 79.104 and 69.1035 and 70.1959 and 71.7888 | MTT, relative to control (0 = 100) ([2]; 1000 μM, průměr (mean)): 63.36 | MTT, relative to control (0 = 100) ([2]; 1000 μM, single experiment (date)): 73.2159 and 60.5042 and 61.05 and 58.6559
